From PMC9967538, “Cytotoxic Effect of Phenylethanoid Glycosides Isolated from Plantago lanceolata L” (Life, 2023)
Read-outs that look alike come from different tables or passages of the source.

How the values were obtained:
[1] = tested on: pre-senescent normal human diploid fibroblasts; parameters: method as in PMID 29505920; conditions: 3-week treatment; cited from earlier work
protein kinase C (PKC) = conditions: cited from earlier work
[2] = tested on: lymphocytic leukemia cells P-388; parameters: method as in PMID 2380718; conditions: cited from earlier work
[3] = MTT cell proliferation assay, MDA-MB-231; format: cell-based, human; conditions: human
[4] = tested on: MDA-MB-231 breast adenocarcinoma cell line; assay: MTT cell proliferation assay, MDA-MB-231; format: cell-based, human; conditions: for IC50: Homo sapiens, MTT, estimation ± SE
MDA-MB 231 cells = tested on: MDA-MB 231 cells; parameters: method as in PMID 34719192; conditions: cell counting kit 8, cited from earlier work
[5] = tested on: HeLa (human epithelial carcinoma); parameters: method as in PMID 8593444; conditions: cited from earlier work
S-180 (sarcoma) = tested on: S-180 (sarcoma); parameters: method as in PMID 8593444; conditions: cited from earlier work
[6] = tested on: d R Lh-84 cells (rat liver cancer); parameters: method as in PMID 8593444; conditions: cited from earlier work
[7] = tested on: MCF-7 breast adenocarcinoma cell line; assay: MTT cell proliferation assay, MCF-7; format: cell-based, human; conditions: for IC50: Homo sapiens, MCF7, MTT, estimation ± SE
[8] = MTT cell proliferation assay, MCF-7; format: cell-based, human; conditions: human
[9] = tested on: HL-60 promyelocytic leukemia cells; parameters: method as in PMID 9477175; conditions: HL-60 cell death; cited from earlier work
[10] = tested on: MCF-7 breast cancer cells; parameters: method as in PMID 34719192; conditions: cell counting kit 8, cited from earlier work
[11] = MTT cell proliferation assay, MCF-12A; format: cell-based, human; conditions: human
[12] = tested on: MCF-12A nontumorigenic mammary epithelial cell line; assay: MTT cell proliferation assay, MCF-12A; format: cell-based, human; conditions: Homo sapiens, MCF-12A
[13] = MTT cell proliferation assay, OVCAR-3; format: cell-based, human; conditions: human
[14] = tested on: OVCAR-3 ovarian cancer cell line; assay: MTT cell proliferation assay, OVCAR-3; format: cell-based, human; conditions: for IC50: Homo sapiens, MTT, estimation ± SE
[15] = tested on: C6 rat glioblastoma cell line; parameters: method as in PMID 30664150; conditions: C6 cells, administered separately, cited from earlier work
[16] = tested on: P-388/D1 (mouse lymphoid tumor); parameters: method as in PMID 8593444; conditions: cited from earlier work
[17] = format: cell-based; conditions: human
[18] = MTT cell proliferation assay, HepG2; format: cell-based, human; conditions: human
[19] = tested on: HepG2 hepatocarcinoma cell line; assay: MTT cell proliferation assay, HepG2; format: cell-based, human; conditions: Homo sapiens, MTT, estimation ± SE
[20] = tested on: Caco-2 colorectal adenocarcinoma cell line; assay: MTT cell proliferation assay, Caco-2; format: cell-based; conditions: Homo sapiens, estimation ± SE
[21] = tested on: glioblastoma cell line T98G; parameters: method as in PMID 36551708; conditions: cited from earlier work

For `C[C@@H]1O[C@@H](O[C@@H]2[C@@H](O)[C@H](OCCc3ccc(O)c(O)c3)O[C@H](CO)[C@H]2OC(=O)/C=C/c2ccc(O)c(O)c2)[C@H](O)[C@H](O)[C@H]1O` [Acteoside], the “cytotoxic effect (in words)” value [1] is given as “no cytotoxic effect”, the “inhibition of protein kinase C (in words)” value (protein kinase C (PKC)) is given as “inhibitor” and the ED50 ([2]; lymphocytic leukemia cells P-388, converted from µg/mL) is given as 4.16 µM. The ED50 ([2]; lymphocytic leukemia cells P-388) was 2.6 µg/mL, the viability at 200 µM [3] was ≤ 30% and the IC50 ([4]; MDA-MB-231, 24 h) was 312 ± 3.28 µM. The IC50 ([4]; MDA-MB-231, 48 h) was 245 ± 4.96 µM, the IC50 ([4]; MDA-MB-231, 72 h) was 200 ± 2.45 µM and the “toxic effect (in words)” value ([4]; MDA-MB-231, 200 μM, after 24 h of treatment) was “highly toxic effect”. The IC50 (MDA-MB 231 cells; MDA-MB 231, 24 h exposure) was 0.16 µM, the IC50 (MDA-MB 231 cells; MDA-MB 231, 48 h exposure) was 0.258 µM and the IC50 (MDA-MB 231 cells; MDA-MB 231, 72 h exposure) was 0.256 µM. The IC50 ([5]; HeLa (human epithelial carcinoma), first value listed, converted, read-out: IC50) was > 320 µM, the IC50 ([5]; HeLa (human epithelial carcinoma), first value listed) was > 200 µg/mL and the IC50 ([5]; HeLa cells, second value listed, converted, read-out: IC50) was 12.5 µM. For the same compound, the IC50 (S-180 (sarcoma); S-180, converted from µg/mL, read-out: IC50) was 47.4 µM, the IC50 (S-180 (sarcoma); S-180) was 29.6 µg/mL and the IC50 [6] was 61.98 µg/mL. The IC50 ([6]; converted from µg/mL, read-out: IC50) was 99.2 µM, the IC50 ([7]; MCF-7, 24 h) was 219.1 ± 1.4 µM and the IC50 ([7]; MCF-7, 48 h) was 154 ± 2.71 µM. The IC50 ([7]; MCF-7, 72 h) was 113 ± 2.81 µM, the “toxic effect (in words)” value ([7]; MCF-7, 200 μM, after 24 h of treatment) was “highly toxic effect” and the viability at 200 µM [8] was ≤ 30%. For the same compound, the IC50 [9] was 26.7 µM, the IC50 ([10]; MCF-7, 24 h exposure) was 0.127 µM and the IC50 ([10]; MCF-7, 48 h exposure) was 0.217 µM. The IC50 ([10]; MCF-7, 72 h exposure) was 0.283 µM, the viability at 400 µM [11] was < 30% and the IC50 ([12]; 24 h, MTT, estimation ± SE, read-out: IC50) was 362.3 ± 1.86 µM. The IC50 ([12]; 48 h, MTT, estimation ± SE, read-out: IC50) was 347 ± 3.67 µM, the IC50 ([12]; 72 h, MTT, estimation ± SE, read-out: IC50) was 326 ± 3.89 µM and the IC50 ([12]; time not stated, summary of Table 1, read-out: IC50 (potency against the MCF-12A line)) was ~300 µM. For the same compound, the viability at 200 µM [13] was ≤ 30%, the IC50 ([14]; OVCAR-3, 24 h) was 314 ± 3.52 µM and the IC50 ([14]; OVCAR-3, 48 h) was 232 ± 5.08 µM. For the same compound, the IC50 ([14]; OVCAR-3, 72 h) was 163 ± 3.41 µM, the “toxic effect (in words)” value ([14]; OVCAR-3, 200 μM, after 24 h of treatment) was “highly toxic effect” and the cell viability ([15]; 50 µM) was ~80%. The IC50 ([16]; P-388/D1, converted from µg/mL, read-out: IC50) was 354 µM, the IC50 ([16]; P-388/D1) was 221.0 µg/mL and the viability at 200 µM [17] was ≤ 30%. The viability at 200 µM [18] was ≤ 30%, the IC50 ([19]; HepG2, 24 h) was 261 ± 3.52 µM and the IC50 ([19]; HepG2, 48 h) was 220 ± 2.65 µM. For the same compound, the IC50 ([19]; HepG2, 72 h) was 173.8 ± 1.59 µM, the IC50 ([20]; Caco-2, 24 h, values exceeding 500 μM determined with CompuSyn from dose-response curve estimation) was > 500 µM and the IC50 ([20]; Caco-2, 48 h) was 467 ± 8.71 µM. The IC50 ([20]; Caco-2, 72 h) was 280 ± 6.13 µM and the IC50 [21] was 85 µM.

In the case of `O=c1cc(-c2ccc(O)c(O)c2)oc2c([C@@H]3O[C@H](CO)[C@@H](O)[C@H](O)[C@H]3O)c(O)cc(O)c12` [orientin, reference compound], the IC50 [21] is given as > 100 µM.

In the case of `Cn1nnc2c(C(N)=O)ncn2c1=O` [temozolomide, reference compound], the cell viability ([15]; 5 mM) is listed as “ca. 52%”.
